The target of data set [1] is FGFR1 (h) (Homo sapiens, UniProt P11362). Put plainly: FGFR1 (enzymatic assay), TR-FRET. It counts as biochemical. The note with it: FGFR 1 pIC50, 5 μM ATP, 60 min; pIC50 = -log IC50 (M); average if tested multiple times. (In TR-FRET formats the signal depends on donor and acceptor labels being close together.)
The target of data set [2] is FGFR2 (h) (Homo sapiens, UniProt P21802). Put plainly: FGFR2 (enzymatic assay), TR-FRET. It counts as biochemical. The following applies: 0.4 μM ATP, 60 min; pIC50 = -log IC50 (M); average if tested multiple times; read-out: FGFR 2 pIC50 (converted).
In data set [3] the target is FGFR3 (h) (Homo sapiens, UniProt P22607). As to the kind of experiment: FGFR3 (enzymatic assay), TR-FRET. It counts as biochemical. The following applies: 25 μM ATP, 60 min; pIC50 = -log IC50 (M); average if tested multiple times; read-out: hFGFR 3 pIC50 (converted).
FGFR3 (h), sequence (P22607 23-806): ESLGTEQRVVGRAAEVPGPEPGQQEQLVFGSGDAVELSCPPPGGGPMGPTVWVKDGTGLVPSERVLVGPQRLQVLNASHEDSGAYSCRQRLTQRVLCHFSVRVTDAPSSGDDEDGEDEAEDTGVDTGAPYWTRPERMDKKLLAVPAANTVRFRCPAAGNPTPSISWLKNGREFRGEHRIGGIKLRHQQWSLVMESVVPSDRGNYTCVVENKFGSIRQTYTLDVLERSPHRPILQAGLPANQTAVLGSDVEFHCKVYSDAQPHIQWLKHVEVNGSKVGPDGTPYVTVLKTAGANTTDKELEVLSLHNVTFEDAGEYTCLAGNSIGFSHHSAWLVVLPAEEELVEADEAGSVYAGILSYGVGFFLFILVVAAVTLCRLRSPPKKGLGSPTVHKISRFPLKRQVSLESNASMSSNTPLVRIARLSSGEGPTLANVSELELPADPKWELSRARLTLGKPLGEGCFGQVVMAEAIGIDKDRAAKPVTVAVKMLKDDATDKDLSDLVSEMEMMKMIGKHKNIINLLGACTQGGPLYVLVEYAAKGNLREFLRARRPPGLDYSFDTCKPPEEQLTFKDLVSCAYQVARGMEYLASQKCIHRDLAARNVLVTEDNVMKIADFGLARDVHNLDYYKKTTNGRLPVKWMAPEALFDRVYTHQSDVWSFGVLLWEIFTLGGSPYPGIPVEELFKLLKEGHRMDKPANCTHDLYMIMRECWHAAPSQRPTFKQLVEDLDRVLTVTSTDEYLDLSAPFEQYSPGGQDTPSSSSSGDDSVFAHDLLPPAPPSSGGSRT
Data set [4] deals with FGFR4 (h) (Homo sapiens, UniProt P22455). As to the kind of experiment: FGFR4 (enzymatic assay), TR-FRET. It counts as biochemical. The note with it: FGFR 4 pIC50, 5 μM ATP, 60 min; pIC50 = -log IC50 (M); average if tested multiple times.
Data set [5] addresses KDR (h) (Homo sapiens, UniProt P35968). As to the kind of experiment: KDR (VEGFR2) (enzymatic assay), TR-FRET. The class given is biochemical. The note with it: 3 μM ATP, 120 min; pIC50 = -log IC50 (M); average if tested multiple times; read-out: VEGFR KDR pIC50 (converted). As for the experimental part: KDR (VEGFR2) (Enzymatic Assay)
In a final reaction volume of 30 μL, KDR (h) (150 ng/ml) was incubated with 50 mM HEPES pH 7.5, 6 mM MnCl2, 1 mM DTT, 0.1 mM Na3VO4, 0.01% Triton-X-100, 500 nM Btn-Flt3 and 3 μM ATP in the presence of compound (1% DMSO final). After incubation for 120 minutes at room temperature the reaction was stopped with 2.27 nM EU-anti P-Tyr, 7 mM EDTA, 31.25 nM SA-XL-665 and 0.02% BSA which was present for 60 minutes at room temperature. Time-Resolved Fluorescence Resonance Energy Transfer (TR-FRET) signal (ex340 nm. Em 620 nm, em 655 nm) was measured afterwards and results are expressed in RFU (Relative Fluorescence Units). In this assay, the inhibitory effect of different compound concentrations (range 10 μM to 0.1 nM) was determined and used to calculate an IC50 (M) and pIC50 (−log IC50) value.

Data set [6] concerns the target T1, Ba/F3-FGFR1-transfected cells (Homo sapiens, UniProt P11362, cells depend on it, form not given).
T1 construct: other: minus IL3; 24 hours, Alamar Blue
Put plainly: Ba/F3-FGFR1 (minus IL3 or plus IL3) cellular proliferation assay, Alamar Blue. It counts as cell-based. The following applies: minus IL3, 24 hours. As for the experimental part:
Ba/F3-FGFR1 (Minus IL3 or Plus IL3) (Cellular Proliferation Assay)
(§1) In a 384 well plate, 100 nl of compound dilution in DMSO was sprayed before adding 50 μl cell culture medium (phenol red free RPMI-1640, 10% FBS, 2 mM L-Glutamine and 50 μg/ml Gentamycin) containing 20000 cells per well of Ba/F3-FGFR1-transfected cells. Cells were put in an incubator at 37° C. and 5% CO2. After 24 hours, 10 μl of Alamar Blue solution (0.5 mM K3Fe(CN)6, 0.5 mM K4Fe(CN)6, 0.15 mM Resazurin and 100 mM Phosphate Buffer) was added to the wells, incubated for 4 hours at 37° C. and 5% CO2 before RFU's (Relative Fluorescence Units) (ex. 540 nm., em. 590 nm.) were measured in a fluorescence plate reader.
(§2) In this assay, the inhibitory effect of different compound concentrations (range 10 μM to 0.1 nM) was determined and used to calculate an IC50 (M) and pIC50 (−log IC50) value. As a counterscreen the same experiment was performed in the presence of 10 ng/ml murine IL3.
A general note: The colour change of resazurin is a common sign of viable cells or microbes.

The target of data set [7] is T2, Ba/F3-FGFR3-transfected cells (Homo sapiens, UniProt P22607, cells depend on it, form not given).
T2 construct: BAF3-FGFR3 (MIN IL3 Alamar Blue- pIC50); other: minus IL3; 24 hours, Alamar Blue
T2 sequence (P22607 whole entry, change not shown): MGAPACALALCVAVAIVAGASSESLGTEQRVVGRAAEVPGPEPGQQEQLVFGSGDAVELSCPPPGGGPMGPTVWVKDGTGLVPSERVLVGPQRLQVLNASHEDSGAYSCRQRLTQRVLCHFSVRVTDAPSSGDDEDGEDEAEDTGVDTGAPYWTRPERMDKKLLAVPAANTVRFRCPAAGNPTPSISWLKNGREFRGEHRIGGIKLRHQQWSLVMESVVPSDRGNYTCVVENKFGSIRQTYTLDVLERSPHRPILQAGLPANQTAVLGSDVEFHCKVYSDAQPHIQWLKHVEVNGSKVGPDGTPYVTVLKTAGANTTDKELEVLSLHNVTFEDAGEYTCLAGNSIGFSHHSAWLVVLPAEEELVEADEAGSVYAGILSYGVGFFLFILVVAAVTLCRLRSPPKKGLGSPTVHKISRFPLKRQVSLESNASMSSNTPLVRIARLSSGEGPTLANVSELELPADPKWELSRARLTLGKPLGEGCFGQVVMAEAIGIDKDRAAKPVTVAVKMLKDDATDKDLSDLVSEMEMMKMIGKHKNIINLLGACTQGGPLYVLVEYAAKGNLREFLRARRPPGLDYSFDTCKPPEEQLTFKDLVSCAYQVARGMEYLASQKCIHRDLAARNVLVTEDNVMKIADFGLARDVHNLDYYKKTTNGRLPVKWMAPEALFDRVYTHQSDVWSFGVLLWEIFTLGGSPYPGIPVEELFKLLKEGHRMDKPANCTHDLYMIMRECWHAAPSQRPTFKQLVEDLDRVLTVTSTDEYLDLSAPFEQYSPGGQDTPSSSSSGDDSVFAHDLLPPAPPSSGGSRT
As to the kind of experiment: Ba/F3-FGFR3 (minus IL3 or plus IL3) cellular proliferation assay, Alamar Blue. It counts as cell-based. The following applies: minus IL3; 24 hours, Alamar Blue. On the procedure:
(§3) Ba/F3-FGFR3 (Minus IL3 or Plus IL3) (Cellular Proliferation Assay)
as §1, with “Ba/F3-FGFR3-transfected” for “Ba/F3-FGFR1-transfected”
as §2

In data set [8] the target is T3, Ba/F3-KDR-transfected cells (Homo sapiens, UniProt P35968, cells depend on it, form not given).
T3 construct: BAF3-KDR (MIN IL3 Alamar Blue pIC50); other: minus IL3; 24 hours, Alamar Blue
T3 sequence (P35968 whole entry, change not shown): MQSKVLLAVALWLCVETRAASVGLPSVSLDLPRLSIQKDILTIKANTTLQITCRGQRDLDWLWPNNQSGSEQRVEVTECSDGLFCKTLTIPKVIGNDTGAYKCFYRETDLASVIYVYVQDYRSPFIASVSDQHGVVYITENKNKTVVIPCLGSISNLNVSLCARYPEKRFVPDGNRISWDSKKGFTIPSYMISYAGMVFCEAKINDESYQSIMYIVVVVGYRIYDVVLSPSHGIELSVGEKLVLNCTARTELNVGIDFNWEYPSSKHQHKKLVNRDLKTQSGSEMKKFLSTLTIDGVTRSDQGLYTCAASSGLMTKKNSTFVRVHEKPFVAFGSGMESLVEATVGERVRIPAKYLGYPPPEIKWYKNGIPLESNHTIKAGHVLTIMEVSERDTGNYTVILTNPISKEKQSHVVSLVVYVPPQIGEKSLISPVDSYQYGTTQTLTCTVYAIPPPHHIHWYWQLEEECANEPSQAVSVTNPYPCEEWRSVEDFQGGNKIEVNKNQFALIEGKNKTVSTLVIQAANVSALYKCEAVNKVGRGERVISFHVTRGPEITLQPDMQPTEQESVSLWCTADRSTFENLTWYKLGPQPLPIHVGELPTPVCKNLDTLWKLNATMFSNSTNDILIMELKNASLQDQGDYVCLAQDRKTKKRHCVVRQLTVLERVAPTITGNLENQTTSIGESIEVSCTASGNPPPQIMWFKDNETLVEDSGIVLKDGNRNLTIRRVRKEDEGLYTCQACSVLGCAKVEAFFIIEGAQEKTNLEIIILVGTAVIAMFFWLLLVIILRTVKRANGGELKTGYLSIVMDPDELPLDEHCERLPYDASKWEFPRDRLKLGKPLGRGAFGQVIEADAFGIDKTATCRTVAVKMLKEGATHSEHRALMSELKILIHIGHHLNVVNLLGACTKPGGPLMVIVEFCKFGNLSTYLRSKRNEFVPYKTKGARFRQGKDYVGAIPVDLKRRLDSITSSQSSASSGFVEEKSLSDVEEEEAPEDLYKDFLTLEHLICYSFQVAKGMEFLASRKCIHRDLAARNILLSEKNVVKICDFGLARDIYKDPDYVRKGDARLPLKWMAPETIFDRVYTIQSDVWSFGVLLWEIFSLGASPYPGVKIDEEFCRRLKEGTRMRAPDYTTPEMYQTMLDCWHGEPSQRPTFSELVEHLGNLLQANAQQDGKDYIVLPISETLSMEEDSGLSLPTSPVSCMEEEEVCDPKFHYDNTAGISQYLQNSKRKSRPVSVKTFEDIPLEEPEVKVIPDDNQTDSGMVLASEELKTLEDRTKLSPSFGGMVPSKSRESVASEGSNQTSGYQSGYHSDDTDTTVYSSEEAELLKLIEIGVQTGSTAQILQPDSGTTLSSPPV
As to the kind of experiment: Ba/F3-KDR (minus IL3 or plus IL3) cellular proliferation assay, Alamar Blue. It counts as cell-based. The following applies: minus IL3; 24 hours, Alamar Blue. As for the experimental part: (§4) Ba/F3-KDR (Minus IL3 or Plus IL3) (Cellular Proliferation Assay)
as §1, with “Ba/F3-KDR-transfected” for “Ba/F3-FGFR1-transfected”
as §2

The target of data set [9] is Ba/F3-FGFR4-transfected cells (Homo sapiens, UniProt P22455). Put plainly: Ba/F3-FGFR4 cellular proliferation assay, Alamar Blue. The following applies: 24 hours. It counts as cell-based. As for the experimental part:
Ba/F3-FGFR4 (Cellular Proliferation Assay)
as §1, with “Ba/F3-FGFR4-transfected” for “Ba/F3-FGFR1-transfected”
In this assay, the inhibitory effect of different compound concentrations (range 10 μM to 0.1 nM) was determined and used to calculate an IC50 (M) and pIC50 (−log IC50) value.

Data set [10] deals with Ba/F3-FGFR3-transfected cells. Put plainly: Ba/F3-FGFR3 (minus IL3 or plus IL3) cellular proliferation assay, Alamar Blue. The class given is cell-based. The note with it: plus IL3 (10 ng/ml murine IL3, counterscreen); 24 hours, Alamar Blue; read-out: BAF3-FGFR3 (PLUS IL3 Alamar Blue pIC50) (converted). As for the experimental part: as §3
as §1, with “Ba/F3-FGFR3-transfected” for “Ba/F3-FGFR1-transfected”
as §2

In data set [11] the test system is Ba/F3-KDR-transfected cells. Put plainly: Ba/F3-KDR (minus IL3 or plus IL3) cellular proliferation assay, Alamar Blue. It counts as cell-based. The note with it: plus IL3 (10 ng/ml murine IL3, counterscreen); 24 hours, Alamar Blue; read-out: BAF3-KDR (PLUS IL3 Alamar Blue pIC50) (converted). As for the experimental part: as §4
as §1, with “Ba/F3-KDR-transfected” for “Ba/F3-FGFR1-transfected”
as §2

The structures appear in SMILES notation.

Ba/F3-FGFR4-transfected cells, sequence (P22455 whole entry, change not shown): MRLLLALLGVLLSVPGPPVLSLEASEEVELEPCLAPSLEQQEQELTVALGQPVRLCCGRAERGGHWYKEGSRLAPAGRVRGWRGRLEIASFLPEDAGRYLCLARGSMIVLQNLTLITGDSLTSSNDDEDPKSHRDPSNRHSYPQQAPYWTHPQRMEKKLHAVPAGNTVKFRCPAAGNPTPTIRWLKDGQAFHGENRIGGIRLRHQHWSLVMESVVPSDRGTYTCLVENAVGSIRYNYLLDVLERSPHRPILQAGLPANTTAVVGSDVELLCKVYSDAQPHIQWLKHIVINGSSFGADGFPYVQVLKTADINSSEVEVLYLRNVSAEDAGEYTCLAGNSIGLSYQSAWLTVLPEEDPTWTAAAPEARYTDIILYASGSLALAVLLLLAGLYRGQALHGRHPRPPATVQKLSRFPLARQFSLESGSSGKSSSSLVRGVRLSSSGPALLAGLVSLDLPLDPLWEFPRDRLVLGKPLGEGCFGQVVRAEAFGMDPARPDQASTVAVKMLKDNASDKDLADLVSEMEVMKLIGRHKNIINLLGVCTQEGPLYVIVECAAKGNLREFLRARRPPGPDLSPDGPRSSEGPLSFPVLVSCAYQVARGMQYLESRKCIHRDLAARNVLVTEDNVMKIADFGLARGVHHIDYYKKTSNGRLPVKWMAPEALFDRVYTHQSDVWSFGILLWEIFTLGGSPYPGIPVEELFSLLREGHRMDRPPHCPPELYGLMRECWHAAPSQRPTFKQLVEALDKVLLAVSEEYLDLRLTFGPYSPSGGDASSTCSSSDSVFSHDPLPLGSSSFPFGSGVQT
KDR (h), sequence (P35968 20-1356): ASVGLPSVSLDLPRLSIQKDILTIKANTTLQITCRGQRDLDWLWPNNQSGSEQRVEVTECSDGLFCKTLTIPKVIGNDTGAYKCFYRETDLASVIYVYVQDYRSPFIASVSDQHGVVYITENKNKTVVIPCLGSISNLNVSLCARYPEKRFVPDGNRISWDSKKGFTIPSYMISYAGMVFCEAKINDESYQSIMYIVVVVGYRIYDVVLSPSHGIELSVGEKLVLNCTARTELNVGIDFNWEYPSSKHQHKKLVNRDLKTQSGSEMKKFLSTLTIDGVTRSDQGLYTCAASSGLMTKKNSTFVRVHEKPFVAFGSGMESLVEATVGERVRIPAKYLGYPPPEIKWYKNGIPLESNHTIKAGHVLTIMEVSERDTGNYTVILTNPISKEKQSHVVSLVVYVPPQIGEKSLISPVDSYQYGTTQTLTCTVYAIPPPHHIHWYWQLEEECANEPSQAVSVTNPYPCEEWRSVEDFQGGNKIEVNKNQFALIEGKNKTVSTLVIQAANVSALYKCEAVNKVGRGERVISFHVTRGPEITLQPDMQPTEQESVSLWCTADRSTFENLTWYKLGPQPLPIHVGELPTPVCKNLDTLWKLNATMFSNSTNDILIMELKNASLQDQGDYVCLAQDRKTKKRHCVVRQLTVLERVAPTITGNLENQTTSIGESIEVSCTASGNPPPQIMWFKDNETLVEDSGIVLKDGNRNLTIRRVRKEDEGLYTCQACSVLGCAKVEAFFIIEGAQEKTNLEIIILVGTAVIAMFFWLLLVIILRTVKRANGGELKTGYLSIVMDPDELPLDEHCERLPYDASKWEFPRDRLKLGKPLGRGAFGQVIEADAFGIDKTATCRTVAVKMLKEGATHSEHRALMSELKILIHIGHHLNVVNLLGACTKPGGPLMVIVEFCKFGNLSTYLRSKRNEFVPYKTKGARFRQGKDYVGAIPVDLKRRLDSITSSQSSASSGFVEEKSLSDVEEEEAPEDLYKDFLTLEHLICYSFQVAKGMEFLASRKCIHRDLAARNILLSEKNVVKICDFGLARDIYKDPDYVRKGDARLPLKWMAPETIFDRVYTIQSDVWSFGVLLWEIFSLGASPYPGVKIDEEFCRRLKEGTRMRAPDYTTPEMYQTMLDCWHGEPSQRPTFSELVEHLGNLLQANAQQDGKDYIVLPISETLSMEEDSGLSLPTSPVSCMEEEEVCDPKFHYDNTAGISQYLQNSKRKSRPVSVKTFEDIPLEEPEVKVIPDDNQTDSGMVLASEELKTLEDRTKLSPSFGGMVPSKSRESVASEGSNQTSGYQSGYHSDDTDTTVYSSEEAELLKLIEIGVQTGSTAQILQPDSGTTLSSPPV

`COc1cc(OC)cc(N(Cc2ncc[nH]2)c2ccc3ncc(-c4ccccc4)cc3c2)c1` [Compound 52] gave a melting point of 133 °C. In data set [1], the IC50 was 1.58e-08 M. Further, in data set [2], the IC50 is 6.61e-09 M. Besides, in data set [3], the IC50 is 8.51e-09 M. The compound also had an IC50 in data set [4] of 1.66e-08 M. Moreover, in data set [5], the IC50 was 9.33e-07 M. Also, in data set [6], the “BAF3-FGFR1 (MIN IL3 pIC50)” value was determined as 5.77. Further, the “BAF3-FGFR3 (MIN IL3 Alamar Blue- pIC50)” value in [7] turned out to be 6.00. Further, in [8], the “BAF3-KDR (MIN IL3 Alamar Blue pIC50)” value is less than 5. Besides, the “BAF3-FGFR 4 (pIC50)” value in data set [9] is reported as 5.48.
Turning to `COc1cc(OC)cc(N(CCO)c2ccc3ncc(-c4ccn(C)c4)cc3c2)c1` [Compound 61], the melting point was determined as 158 °C. In data set [2], the IC50 was approximately 1.26e-08 M. Further, in [3], the IC50 is 2.69e-09 M. This compound had an IC50 in data set [4] of 2.09e-08 M. For the same compound, the IC50 in data set [5] was 1.91e-07 M. For the same compound, the “BAF3-FGFR1 (MIN IL3 pIC50)” value in [6] came out at 6.02. Further, the “BAF3-FGFR3 (MIN IL3 Alamar Blue- pIC50)” value in data set [7] is reported as 5.84. In addition, in data set [10], the IC50 was more than 10 µM. The “BAF3-KDR (MIN IL3 Alamar Blue pIC50)” value in data set [8] is on record as 5.40. Further, the IC50 in data set [11] was more than 10 µM. The “BAF3-FGFR 4 (pIC50)” value in data set [9] was 5.66.
Regarding `COc1cc(OC)cc(N(CCO)c2ccc3ncc(-c4ccccc4)cc3c2)c1` [Compound 50], the melting point was 111 °C. Besides, in data set [1], the IC50 is 6.92e-08 M. In addition, the IC50 in [2] is 5.5e-08 M. The IC50 in data set [3] was 5.75e-08 M. For the same compound, in [4], the IC50 was 2.57e-07 M. Further, the IC50 in data set [5] was more than 1e-06 M. The “BAF3-FGFR1 (MIN IL3 pIC50)” value in data set [6] is 5.11. The “BAF3-FGFR3 (MIN IL3 Alamar Blue- pIC50)” value in [7] is listed as 5.19. The IC50 in [10] is more than 10 µM. In addition, the “BAF3-KDR (MIN IL3 Alamar Blue pIC50)” value in data set [8] is less than 5. For the same compound, the IC50 in data set [11] is more than 10 µM. The “BAF3-FGFR 4 (pIC50)” value in [9] was less than 5.
For `COc1cc(OC)c(F)c(N(CCNC(C)C)c2ccc3ncc(-c4cnn(C)c4)cc3c2)c1F` [Compound 42], the melting point worked out at 75 °C. In data set [1], the IC50 is 1.15e-09 M. Moreover, the IC50 in [2] is 3.16e-09 M. Further, in data set [3], the IC50 is 3.39e-09 M. For the same compound, in data set [4], the IC50 was 2.88e-09 M. In data set [5], the IC50 was 1.58e-08 M. For the same compound, the “BAF3-FGFR1 (MIN IL3 pIC50)” value in data set [6] is recorded as 8.95. Besides, in data set [7], the “BAF3-FGFR3 (MIN IL3 Alamar Blue- pIC50)” value was found to be 8.25. Further, the IC50 in data set [10] is more than 10 µM. Further, the “BAF3-KDR (MIN IL3 Alamar Blue pIC50)” value in data set [8] turned out to be 6.95. The IC50 in data set [11] was more than 10 µM. In addition, in [9], the “BAF3-FGFR 4 (pIC50)” value came to 8.25.
As to `COc1cc(OC)cc(C(CCO)c2ccc3ncc(-c4cnn(C)c4)cc3c2)c1` (stereo not shown) [Compound 34], the melting point amounted to 131 °C. Besides, the IC50 in [2] is 1.86e-07 M. Besides, the IC50 in [3] was 2.14e-08 M. The compound also showed an IC50 in [4] of 4.17e-07 M. Moreover, the IC50 in data set [5] is more than 1e-06 M. Further, in [6], the “BAF3-FGFR1 (MIN IL3 pIC50)” value turned out to be 5.01. Further, the “BAF3-FGFR3 (MIN IL3 Alamar Blue- pIC50)” value in [7] amounted to 5.16. In data set [10], the IC50 was more than 10 µM. Further, the “BAF3-KDR (MIN IL3 Alamar Blue pIC50)” value in [8] is given as less than 5. Moreover, the IC50 in [11] was more than 10 µM. In [9], the “BAF3-FGFR 4 (pIC50)” value is given as less than 5.
As for `COc1cc(OC)cc(C(CC#N)c2ccc3ncc(-c4cnn(C)c4)cc3c2)c1` (stereo not shown) [Compound 39], the melting point was determined as 172 °C. For the same compound, the IC50 in [2] was 2.82e-07 M. The IC50 in data set [3] is 1.78e-07 M. In data set [4], the IC50 is more than 1e-06 M. The IC50 in [5] is more than 1e-06 M. Moreover, the “BAF3-FGFR1 (MIN IL3 pIC50)” value in [6] is 5.09. Further, the “BAF3-FGFR3 (MIN IL3 Alamar Blue- pIC50)” value in data set [7] is less than 5. Further, in data set [10], the IC50 was more than 10 µM. Further, in [8], the “BAF3-KDR (MIN IL3 Alamar Blue pIC50)” value is reported as less than 5. Further, in [11], the IC50 is more than 10 µM. The “BAF3-FGFR 4 (pIC50)” value in [9] is recorded as less than 5.

A word on the melting point: it is the temperature of the solid-liquid transition.

These data come from patent publication US10039759B2, “Quinolines as FGFR kinase modulators” (priority 2011, dated 2018).
